pIC50: −log10 of the molar value. Where two headings read alike, the source gives them in different places.
Key:
PC3 cells = assay: PC3 growth inhibition (Cell-titer glo, 72 hours); assay type: cell-based; settings: Homo sapiens, PC-3, PC3 cells, 72 hours, Cell-titer glo, read-out: Percent Inhibition (PC3 growth inhibition); for inhibition at 1.667 µM: compound concentration 1.667 μM; for inhibition at 1 µM: compound concentration 1 μM; for inhibition at 1.852 µM: compound concentration 1.852 μM
Protocol: The ability of a compound of the invention to inhibit the growth of cells can be measured using a variety of methods known in the art. For example, the ability of a compound of the invention to inhibit the growth of PC3 cells can be measured. PC3 cells can be plated and incubated overnight under CO2. For each measurement, a compound of the invention (or vehicle e.g., DMSO) can be diluted with AIM serum free medium and added to the cell plate. The cell plate can then be incubated for 72 h under CO2. Cell-titer glo solution can be added and the plates can be incubated protected from light and the amount of luminescences can be measured. Concentration response curves can be generated by calculating the luminescence increase in test compound treated samples relative to DMSO-treated controls. Percentage remaining viability values at a single concentration can be measured. Growth inhibition (GI50) or cell viability (LD50) values can be determined from those curves.
Compounds of the invention were assayed to measure PC3 growth inhibition at a concentration of 1 μM or 1.667 μM (Table 3). To measure PC3 growth inhibition, PC3 cells that were maintained in PRMI1640 growth medium (Life Technologies; Cat. No. 11875) at 37° C. under 5% CO2 are trypsinized and diluted at a density of 8×10^4 cells/ml, 25 ul per well of cells and plated in 384-well black tissue culture plate. The cells are incubated overnight at 37° C. under 5% CO2. For each measurement, a test compounds or vehicle control (DMSO) are diluted with AIM serum free medium and added to the cell plate. Incubate for 72 hours at 37° C. under 5% CO2. 25 μl Cell-titer glo solution (Promega; Cat. No. G8462) is added and the cell plates are incubated for 10 minutes protected from light. The luminescence is measured. Concentration response curves are generated by calculating the luminescence increase in test compound-treated samples relative to DMSO-treated controls. Percentage remaining viability values at a single concentration, growth inhibition (GI50) or cell viability (LD50) values are determined from those curves. One skilled in the art will appreciate that these values are subject to experimental variation.

hNAMPT protein = hNAMPT protein (Homo sapiens (Human), UniProt P43490); assay: NAMPT enzyme assay (TR-FRET/HTRF, BodiPY ligand, anti 6His-Tb); assay type: binding; settings: for pIC50: NAMPT IC50 range class, read-out: IC50; for inhibition at 1 µM: read-out: Percent Inhibition
Sequence of hNAMPT protein (P43490 whole entry): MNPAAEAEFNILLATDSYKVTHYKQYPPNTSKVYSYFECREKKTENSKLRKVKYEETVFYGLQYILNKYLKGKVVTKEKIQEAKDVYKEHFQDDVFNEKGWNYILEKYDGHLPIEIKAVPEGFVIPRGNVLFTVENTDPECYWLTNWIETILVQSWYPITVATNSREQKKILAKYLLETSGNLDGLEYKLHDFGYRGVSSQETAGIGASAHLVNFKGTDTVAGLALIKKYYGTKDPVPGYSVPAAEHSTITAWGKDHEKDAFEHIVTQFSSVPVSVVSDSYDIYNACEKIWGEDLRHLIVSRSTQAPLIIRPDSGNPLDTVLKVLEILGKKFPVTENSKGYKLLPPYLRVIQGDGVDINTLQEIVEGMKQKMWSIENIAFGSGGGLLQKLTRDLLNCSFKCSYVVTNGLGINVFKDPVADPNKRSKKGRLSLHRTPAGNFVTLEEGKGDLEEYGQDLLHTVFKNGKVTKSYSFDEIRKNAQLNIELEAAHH
Method in brief: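 Compound or DMSO was incubated for 1 h at room temperature, protected from light, with BodiPY ligand and hNAMPT labelled by terbium anti-6His antibody. The 520 nm to 486 nm emission ratio after 320 nm excitation gave inhibition versus vehicle, from which concentration-response curves yielded IC50.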

SMILES | inhibition at 1.667 µM (PC3 cells) | pIC50 (hNAMPT protein) | inhibition at 1 µM (hNAMPT protein; compound concentration 1 μM) | inhibition at 1 µM (PC3 cells) | inhibition at 1.852 µM (PC3 cells) | inhibition at 1 µM (hNAMPT protein)
O=C(NCCCc1ncc[nH]1)c1ccc2nc(N3CCC(N4CCOCC4)CC3)c(-c3cccs3)nc2c1 [Compound I-44, N-[3-(1H-imidazol-2-yl)propyl]-2-[4-(morpholin-4-yl)piperidin-1-yl]-3-(2-thienyl)quinoxaline-6-carboxamide] | 33% | > 7.00 | > 99% |  |  | 
O=C(NCCCn1ccnc1)c1ccc2nc(-c3ccc(Cl)cc3)c(-c3ccccc3)nc2c1 [Compound I-45, 2-(4-chlorophenyl)-N-[3-(1H-imidazol-1-yl)propyl]-3-phenylquinoxaline-6-carboxamide] |  | 6.30 to 7.00 | 50% | -6% |  | 
COc1cccc(-c2nc3cc(C(=O)NCCCc4cccnc4)ccc3nc2N2CCC(O)CC2)c1 [Compound I-46, 2-(4-hydroxypiperidin-1-yl)-3-(3-methoxyphenyl)-N-[3-(pyridin-3-yl)propyl]quinoxaline-6-carboxamide] |  | > 7.00 | 98% |  | 2% | 
O=C(NCCCc1ccnnc1)c1ccc2nc(N3CCOCC3)c(-c3ccc(F)cc3)nc2c1 [Compound I-47, 3-(4-Fluorophenyl)-2-(morpholin-4-yl)-N-[3-(pyridazin-4-yl)propyl]quinoxaline-6-carboxamide] | 33% | > 7.00 |  |  |  | 90%
CS(=O)(=O)Nc1cccc(-c2nc3cc(C(=O)NCCCn4ccnc4)ccc3nc2-c2ccccc2)c1 [Compound I-48, N-[3-(1H-imidazol-1-yl)propyl]-3-{3-[(methylsulfonyl)amino]phenyl}-2-phenylquinoxaline-6-carboxamide] |  | 6.30 to 7.00 | 87% | 1% |  | 
O=C(NCCCn1ccnc1)c1ccc2nc(-c3cn[nH]c3)c(-c3ccccc3)nc2c1 [Compound I-49, N-[3-(1H-imidazol-1-yl)propyl]-3-phenyl-2-(1H-pyrazol-4-yl)quinoxaline-6-carboxamide] |  | 6.00 to 6.30 | 56% | 8% |  | 
O=C(NCCCc1ncc[nH]1)c1ccc2nc(Cl)c(-c3ccc(Cl)cc3)nc2c1 [Compound I-50, 2-chloro-3-(4-chlorophenyl)-N-[3-(1H-imidazol-2-yl)propyl]quinoxaline-6-carboxamide] | 96% | > 7.00 | 87% |  |  | 
CC(=O)N1CCN(c2nc3ccc(C(=O)NCCCn4ccnc4)cc3nc2-c2ccccc2)CC1 [Compound I-51, 2-(4-acetylpiperazin-1-yl)-N-[3-(1H-imidazol-1-yl)propyl]-3-phenylquinoxaline-6-carboxamide] |  | 6.30 to 7.00 | 81% | -7% |  | 
COc1cccc(-c2nc3ccc(C(=O)NCCCn4ccnc4)cc3nc2-c2cccc(OC)c2)c1 [Compound I-52, N-[3-(1H-imidazol-1-yl)propyl]-2,3-bis(3-methoxyphenyl)quinoxaline-6-carboxamide] |  | > 7.00 | 103% | 0% |  | 
Cn1cncc1CCNC(=O)c1ccc2nc(-c3ccc(F)cc3)c(-c3ccc(F)cc3)nc2c1 [Compound I-53, 2,3-bis(4-fluorophenyl)-N-[2-(1-methyl-1H-imidazol-5-yl)ethyl]quinoxaline-6-carboxamide] |  | 6.30 to 7.00 | 77% | -6% |  | 
N#Cc1ccccc1-c1nc2ccc(C(=O)NCCCn3ccnc3)cc2nc1-c1ccccc1 [Compound I-54, 2-(2-cyanophenyl)-N-[3-(1H-imidazol-1-yl)propyl]-3-phenylquinoxaline-6-carboxamide] |  | 6.00 to 6.30 | 50% | -7% |  | 
COc1cccc(-c2nc3cc(C(=O)NCCCn4ccnc4)ccc3nc2N2CCOCC2)c1 [Compound I-55, N-[3-(1H-imidazol-1-yl)propyl]-3-(3-methoxyphenyl)-2-(morpholin-4-yl)quinoxaline-6-carboxamide] |  | > 7.00 | 102% | -7% |  | 
O=C(c1ccc2nc(-c3ccc(F)cc3)c(-c3ccc(F)cc3)nc2c1)N1CCn2ccnc2C1 [Compound I-56, [2,3-bis(4-fluorophenyl)quinoxalin-6-yl](5,6-dihydroimidazo[1,2-a]pyrazin-7(8H)-yl)methanone] |  | 5.00 to 5.70 | 33% | 104% |  | 
Cc1nccn1CCCNC(=O)c1ccc2nc(-c3ccc(F)cc3)c(-c3ccc(F)cc3)nc2c1 [Compound I-57, 2,3-bis(4-fluorophenyl)-N-[3-(2-methyl-1H-imidazol-1-yl)propyl]quinoxaline-6-carboxamide] |  | > 7.00 | 96% | 45% |  | 
CN(C)c1nc2ccc(C(=O)NCCc3cncn3C)cc2nc1-c1ccc(F)cc1 [Compound I-58, 2-(dimethylamino)-3-(4-fluorophenyl)-N-[2-(1-methyl-1H-imidazol-5-yl)ethyl]quinoxaline-6-carboxamide] | 50% | 6.00 to 6.30 | 64% |  |  | 
COC1CN(c2nc3ccc(C(=O)NCCCn4ccnc4)cc3nc2-c2ccccc2)C1 [Compound I-59, N-[3-(1H-imidazol-1-yl)propyl]-2-(3-methoxyazetidin-1-yl)-3-phenylquinoxaline-6-carboxamide] |  | 5.70 to 6.00 | 49% | -6% |  | 
O=C(NCCCn1ccnc1)c1ccc2nc(-c3ccsc3)c(-c3ccccc3)nc2c1 [Compound I-60, N-[3-(1H-imidazol-1-yl)propyl]-3-phenyl-2-(3-thienyl)quinoxaline-6-carboxamide] |  | 6.00 to 6.30 | 51% | -4% |  | 
O=C(NCCCn1ccnc1)c1ccc2nc(-c3cccc(OC(F)(F)F)c3)c(-c3ccccc3)nc2c1 [Compound I-61, N-[3-(1H-imidazol-1-yl)propyl]-3-phenyl-2-[3-(trifluoromethoxy)phenyl]quinoxaline-6-carboxamide] |  | 6.30 to 7.00 | 75% | -7% |  | 
O=C(NCCCn1ccnc1)c1ccc2nc(NCc3ccccc3)c(-c3ccccc3)nc2c1 [Compound I-62, 2-(benzylamino)-N-[3-(1H-imidazol-1-yl)propyl]-3-phenylquinoxaline-6-carboxamide] |  | 5.00 to 5.70 | 24% | -4% |  | 
CC(C)(C)OC(=O)NCc1ccc(-c2nc3cc(C(=O)NCCCn4ccnc4)ccc3nc2-c2ccccc2)cc1 [Compound I-63, tert-Butyl [4-(7-{[3-(1H-imidazol-1-yl)propyl]carbamoyl}-3-phenylquinoxalin-2-yl)benzyl]carbamate] |  | 5.00 to 5.70 |  | 25% |  | 17%
O=C(NCc1ccc2nccn2c1)c1ccc2nc(N3CCC(N4CCOCC4)CC3)c(-c3ccc(F)cc3)nc2c1 [Compound I-64, 3-(4-fluorophenyl)-N-(imidazo[1,2-a]pyridin-6-ylmethyl)-2-[4-(morpholin-4-yl)piperidin-1-yl]quinoxaline-6-carboxamide] |  | > 7.00 | 98% |  | 2% | 
O=C(NCCOc1cccnc1)c1ccc2nc(-c3ccc(F)cc3)c(-c3ccc(F)cc3)nc2c1 [Compound I-65, 2,3-bis(4-fluorophenyl)-N-[2-(pyridin-3-yloxy)ethyl]quinoxaline-6-carboxamide] | 2% | > 7.00 | 95% |  |  | 
CC(C)(C)OC(=O)N1CCN(C2CCN(c3nc4ccc(C(=O)NCCCn5ccnc5)cc4nc3-c3ccccc3)CC2)CC1 [Compound I-66, tert-butyl 4-[1-(6-{[3-(1H-imidazol-1-yl)propyl]carbamoyl}-3-phenylquinoxalin-2-yl)piperidin-4-yl]piperazine-1-carboxylate] |  | > 7.00 | 102% | -1% |  | 
COc1cccc(-c2nc3cc(C(=O)NCCc4cccnc4)ccc3nc2N2CCC(O)CC2)c1 [Compound I-67, 2-(4-hydroxypiperidin-1-yl)-3-(3-methoxyphenyl)-N-[2-(pyridin-3-yl)ethyl]quinoxaline-6-carboxamide] | 2% | > 7.00 | 96% |  |  | 
